38 molecules from US9751854B2 (Millennium Pharmaceuticals, Inc., priority 2014, dated 2017) can be followed below.

The IC50 is the midpoint of a concentration-inhibition curve.

The structures appear in SMILES notation.

One test deals with human VPS34 (Homo sapiens (Human), UniProt Q8NEB9). As to the kind of experiment: Human VPS34 enzyme assay (Adapta TR-FRET ADP detection). It counts as biochemical. On the set-up: Percent Inhibition: dose or concentration left out as unconfirmed.
Sequence of human VPS34 (Q8NEB9 whole entry): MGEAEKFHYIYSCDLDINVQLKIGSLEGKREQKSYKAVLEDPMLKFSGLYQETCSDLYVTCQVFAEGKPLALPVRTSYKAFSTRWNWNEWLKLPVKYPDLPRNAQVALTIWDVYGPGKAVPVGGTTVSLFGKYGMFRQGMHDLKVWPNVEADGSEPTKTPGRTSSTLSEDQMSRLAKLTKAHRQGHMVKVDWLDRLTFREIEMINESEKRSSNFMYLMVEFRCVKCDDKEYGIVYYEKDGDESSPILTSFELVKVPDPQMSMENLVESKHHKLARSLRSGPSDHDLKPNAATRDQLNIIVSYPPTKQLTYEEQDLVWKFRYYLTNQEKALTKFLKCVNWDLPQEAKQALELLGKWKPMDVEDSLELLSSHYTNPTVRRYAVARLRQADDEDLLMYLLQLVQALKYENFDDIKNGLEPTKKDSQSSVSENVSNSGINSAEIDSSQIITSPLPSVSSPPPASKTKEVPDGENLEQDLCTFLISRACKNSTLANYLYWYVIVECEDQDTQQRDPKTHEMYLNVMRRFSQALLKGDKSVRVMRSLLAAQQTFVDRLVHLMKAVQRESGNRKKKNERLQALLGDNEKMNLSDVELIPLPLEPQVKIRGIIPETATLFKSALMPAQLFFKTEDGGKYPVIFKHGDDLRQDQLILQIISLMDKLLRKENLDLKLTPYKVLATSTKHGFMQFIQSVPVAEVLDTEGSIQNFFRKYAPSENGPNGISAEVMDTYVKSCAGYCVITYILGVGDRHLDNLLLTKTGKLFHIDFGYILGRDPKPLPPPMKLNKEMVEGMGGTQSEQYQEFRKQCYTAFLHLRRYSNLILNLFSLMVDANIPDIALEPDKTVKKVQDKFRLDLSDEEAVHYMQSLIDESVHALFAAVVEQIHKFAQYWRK
Conditions: not given
On the technique in general: Time-resolved FRET reads energy transfer from a long-lived donor to a nearby acceptor.
As for `CC(=O)Nc1cc(-c2cnc(C)c(NS(=O)(=O)N3CC4CCC3C4)c2)ccn1` (stereo not shown) [Compound I-445, N-{5-[(2-azabicyclo[2.2.1]hept-2-ylsulfonyl)amino]-6-methyl-3,4′-bipyridin-2′-yl}acetamide], the “Percent Inhibition” value is over 99%.
On the same count and under the same terms, the result for `CC(=O)Nc1cc(-c2cnc(Cl)c(S(=O)(=O)N[C@H](CO)c3ccccc3)c2)ccn1` [Compound I-330, N-(6-chloro-5-{[(1S)-2-hydroxy-1-phenylethyl]sulfamoyl}-3,4′-bipyridin-2′-yl)acetamide] reads over 99%.

The test is the same for the next values; noted with them: IC50 range class.
Molecule `CC(=O)Nc1cc(-c2cnc(Cl)c(NS(=O)(=O)c3ccc(Br)cc3F)c2C)ccn1` [Compound I-444, N-(5-{[(4-bromo-2-fluorophenyl)sulfonyl]amino}-6-chloro-4-methyl-3,4′-bipyridin-2′-yl)acetamide] returned an IC50 of 10 to 50 nM.
Same read-out and setting: the result for `COc1ncc(-c2ccnc(NC(C)=O)c2)c(C)c1S(=O)(=O)NC(C)(C)C` [Compound I-442, N-[5-(tert-butylsulfamoyl)-6-methoxy-4-methyl-3,4′-bipyridin-2′-yl]acetamide] reads 10 to 50 nM; that for `CC(=O)Nc1cc(-c2cnc(C)c(NS(=O)(=O)N3CCC(F)(F)CC3)c2)ccn1` [Compound I-374, N-(5-{[(4,4-difluoropiperidin-1-yl)sulfonyl]amino}-6-methyl-3,4′-bipyridin-2′-yl)acetamide], 10 to 50 nM.
Regarding `CC(=O)Nc1cc(-c2cncc(S(=O)(=O)NCc3ccccc3)c2)ccn1` [Compound I-321, N-[5-(benzylsulfamoyl)-3,4′-bipyridin-2′-yl]acetamide], the IC50 lay in the range of 50 to 100 nM.
As to `CC(=O)Nc1cc(-c2cncc(NS(=O)(=O)N(C)C)c2)ccn1` [Compound I-348, N-{5-[(dimethylsulfamoyl)amino]-3,4′-bipyridin-2′-yl}acetamide], the IC50 fell in the range of 10 to 50 nM.
On the same count and under the same terms, the result for `CC(=O)Nc1cc(-c2cnc3c(c2)c(S(=O)(=O)N2CCCC2)cn3C)ccn1` [Compound I-151, N-{4-[1-methyl-3-(pyrrolidin-1-ylsulfonyl)-1H-pyrrolo[2,3-b]pyridin-5-yl]pyridin-2-yl}acetamide] reads 10 to 50 nM; that for `CC(=O)Nc1cc(-c2cnc(C)c(NS(=O)(=O)N3CC4CCC3C4)c2)ccn1` (stereo not shown) [Compound I-445, N-{5-[(2-azabicyclo[2.2.1]hept-2-ylsulfonyl)amino]-6-methyl-3,4′-bipyridin-2′-yl}acetamide], 10 to 50 nM; that for `CC(=O)Nc1cc(-c2cnc(N)c(S(=O)(=O)N3CCOCC3)c2)ccn1` [Compound I-24, N-[6-amino-5-(morpholin-4-ylsulfonyl)-3,4′-bipyridin-2′-yl]acetamide], under 10 nM.
Turning to `Cc1ncc(-c2ccnc(NC(=O)C3CC3(F)F)c2)cc1NS(=O)(=O)c1ccc(Cl)cc1F` (stereo not shown) [Compound I-441, N-(5-{[(4-chloro-2-fluorophenyl)sulfonyl]amino}-6-methyl-3,4′-bipyridin-2′-yl)-2,2-difluorocyclopropanecarboxamide], the half-inhibitory concentration (IC50) is under 10 nM.
`COc1ncc(-c2ccnc(NC(C)=O)c2)cc1S(=O)(=O)Nc1cccc(C(F)(F)F)c1` [Compound I-329, N-(6-methoxy-5-{[3-(trifluoromethyl)phenyl]sulfamoyl}-3,4′-bipyridin-2′-yl)acetamide]: the IC50 was in the range of 10 to 50 nM.
On the same count and under the same terms, the result for `CC(=O)Nc1cc(-c2cnc(Cl)c(N3CCCS3(=O)=O)c2C)ccn1` [Compound I-425, N-[6-chloro-5-(1,1-dioxidoisothiazolidin-2-yl)-4-methyl-3,4′-bipyridin-2′-yl]acetamide] reads 10 to 50 nM; that for `CC(=O)Nc1cc(-c2cnc(Cl)c(NS(=O)(=O)c3ccc(F)cc3Cl)c2C)ccn1` [Compound I-290, N-(6-chloro-5-{[(2-chloro-4-fluorophenyl)sulfonyl]amino}-4-methyl-3,4′-bipyridin-2′-yl)acetamide], 10 to 50 nM; that for `CNS(=O)(=O)c1cc(-c2ccnc(NC(C)=O)c2)cnc1N` [Compound I-89, N-[6-amino-5-(methylsulfamoyl)-3,4′-bipyridin-2′-yl]acetamide], 10 to 50 nM.
On the same count and under the same terms, the result for `CC(=O)Nc1cc(-c2cnc3ccn(S(=O)(=O)C4CC4)c3c2)ccn1` [Compound I-199, N-{4-[1-(cyclopropylsulfonyl)-1H-pyrrolo[3,2-b]pyridin-6-yl]pyridin-2-yl}acetamide] reads under 10 nM.
Same read-out and setting: the result for `Cc1nccc(Nc2cc(-c3cc(NC(=O)N4CC(F)(F)C4)c4ccnn4c3)ccn2)n1` [Compound I-407, 3,3-difluoro-N-(6-{2-[(2-methylpyrimidin-4-yl)amino]pyridin-4-yl}pyrazolo[1,5-a]pyridin-4-yl)azetidine-1-carboxamide] reads 10 to 50 nM; that for `Cc1ncc(-c2ccnc(-n3cnc4c(C)nccc43)c2)cc1NS(=O)(=O)N(C)C` [Compound I-263, N,N-dimethyl-N′-[6-methyl-2′-(4-methyl-1H-imidazol[4,5-c]pyridin-1-yl)-3,4′-bipyridin-5-yl]sulfuric diamide], over 100 nM; that for `CC(=O)Nc1cc(-c2cnc(N)c(S(=O)(=O)NCC3CC3)c2C)ccn1` [Compound I-49, N-{6-amino-5-[(cyclopropylmethyl)sulfamoyl]-4-methyl-3,4′-bipyridin-2′-yl}acetamide], 50 to 100 nM.
For the molecule `CC(=O)Nc1cc(-c2cnc(N)c(C(=O)NCC3CC3)c2)ccn1` [Compound I-14, 2′-acetamido-6-amino-N-(cyclopropylmethyl)-3,4′-bipyridine-5-carboxamide], the IC50 was in the range of 10 to 50 nM.
Molecule `Cc1nccc(Nc2cc(-c3cnc(Cl)c(S(=O)(=O)NC4CCC4)c3)ccn2)n1` [Compound I-215, 6-chloro-N-cyclobutyl-2′-((2-methylpyrimidin-4-yl)amino)-[3,4′-bipyridine]-5-sulfonamide] registered an IC50 of 10 to 50 nM.
In the case of `CC(=O)Nc1cc(-c2cncc(N3CCCCS3(=O)=O)c2)ccn1` [Compound I-320, N-[5-(1,1-dioxido-1,2-thiazinan-2-yl)-3,4′-bipyridin-2′-yl]acetamide], the IC50 lay in the range of 10 to 50 nM.
Take `CC(=O)Nc1cc(-c2cnc(N)c(C(=O)N3CCC3)c2)ccn1` [Compound I-200, N-[6-amino-5-(azetidin-1-ylcarbonyl)-3,4′-bipyridin-2′-yl]acetamide]: the IC50 was under 10 nM.
In turn, `CCNC(=O)Nc1cc(-c2ccnc(Nc3ccnc(C)n3)c2)cnc1C` [Compound I-367, 1-ethyl-3-{6-methyl-2′-[(2-methylpyrimidin-4-yl)amino]-3,4′-bipyridin-5-yl}urea] yielded an IC50 of 50 to 100 nM.
Regarding `CC(=O)Nc1cc(-c2cncc(N3CCCN(C)S3(=O)=O)c2)ccn1` [Compound I-452, N-[5-(6-methyl-1,1-dioxido-1,2,6-thiadiazinan-2-yl)-3,4′-bipyridin-2′-yl]acetamide], the IC50 lay in the range of 10 to 50 nM.
`CC(=O)Nc1cc(-c2cnc(C)c(NS(=O)(=O)c3c(F)cccc3F)c2)ccn1` [Compound I-150, N-(5-{[(2,6-difluorophenyl)sulfonyl]amino]-6-methyl-3,4′-bipyridin-2′-yl)acetamide] returned an IC50 of under 10 nM.
`COc1cc(F)ccc1S(=O)(=O)Nc1cc(-c2ccnc(NC(C)=O)c2)cnc1C` [Compound I-58, N-(5-{[(4-fluoro-2-methoxyphenyl)sulfonyl]amino}-6-methyl-3,4′-bipyridin-2′-yl)acetamide] yielded an IC50 of under 10 nM.
The same measure, in the same setting: the result for `CC(=O)Nc1cc(-c2cnc(C)c(N(CCO)S(=O)(=O)c3ccc(F)cc3F)c2)ccn1` [Compound I-319, N-(5-{[(2,4-difluorophenyl)sulfonyl](2-hydroxyethyl)amino}-6-methyl-3,4′-bipyridin-2′-yl]acetamide] reads over 100 nM.
The same measure, in the same setting: the result for `CC(=O)Nc1cc(-c2cnc(N)c(S(=O)(=O)Cc3ccccc3Cl)c2)ccn1` [Compound I-172, N-{6-amino-5-[(chlorobenzyl)sulfonyl]-3,4′-bipyridin-2′-yl}acetamide] reads 10 to 50 nM; that for `Cc1nccc(Nc2cc(-c3cnc(C)c(OCCN(C)C)c3)ccn2)n1` [Compound I-379, 5-[2-(dimethylamino)ethoxy]-6-methyl-N-(2-methylpyrimidin-4-yl)-3,4′-bipyridin-2′-amine], over 100 nM.
Same read-out and setting: the result for `CC(=O)Nc1cc(-c2cnc(C)c(NS(=O)(=O)N3CCC(C)(C)CC3)c2)ccn1` [Compound I-483, N-(5-{[(4,4-dimethylpiperidin-1-yl)sulfonyl]-amino}-6-methyl-3,4′-bipyridin-2′-yl)acetamide] reads 10 to 50 nM; that for `CC(=O)Nc1cc(-c2cnc(N)c(N(C)S(C)(=O)=O)c2)ccn1` [Compound I-133, N-{6-amino-5-[methyl(methylsulfonyl)amino]-3,4′-bipyridin-2′-yl}acetamide], under 10 nM; that for `CC(=O)Nc1cc(-c2cnc(N)c(N3CCCNS3(=O)=O)c2)ccn1` [Compound I-490, N-[6-amino-5-(1,1-dioxido-1,2,6-thiadiazinan-2-yl)-3,4′-bipyridin-2′-yl]acetamide], under 10 nM.
Take `CC(=O)Nc1cc(-c2ccnc(Nc3ccnc(C)n3)c2)cn2nccc12` [Compound I-450, N-(6-{2-[(2-methylpyrimidin-4-yl)amino]pyridin-4-yl}pyrazolo[1,5-a]pyridin-4-yl)acetamide]: the IC50 lay in the range of 10 to 50 nM.
Still for that read-out and setting: the result for `CCOC(=O)Nc1cc(-c2cnc(Cl)c(NS(=O)(=O)c3ccc(F)cc3F)c2C)ccn1` [Compound I-383, ethyl (6-chloro-5-{[(2,4-difluorophenyl)sulfonyl]amino}-4-methyl-3,4′-bipyridin-2′-yl)carbamate] reads 10 to 50 nM.
Still for that read-out and setting: the result for `CC(=O)Nc1cc(-c2cnc(C)c(Nc3nc4ccccc4o3)c2)ccn1` [Compound I-392, N-[5-(1,3-benzoxazol-2-ylamino)-6-methyl-3,4′-bipyridin-2′-yl]acetamide] reads over 100 nM.
Molecule `CC(=O)Nc1cc(-c2cnc(Cl)c(S(=O)(=O)N[C@H](CO)c3ccccc3)c2)ccn1` [Compound I-330, N-(6-chloro-5-{[(1S)-2-hydroxy-1-phenylethyl]sulfamoyl}-3,4′-bipyridin-2′-yl)acetamide] displayed an IC50 of over 100 nM.
In turn, `Cc1ncc(-c2ccnc(NC(=O)C3CC3)c2)cc1C(=O)N(C)C12CC(C1)C2` [Compound I-388, N-(bicyclo[1.1.1]pent-1-yl)-2′-[(cyclopropylcarbonyl)amino]-N,6-dimethyl-3,4′-bipyridine-5-carboxamide] gave an IC50 of 50 to 100 nM.
The same measure, in the same setting: the result for `COC(=O)Nc1cc(-c2cnc(C)c(N3CCCS3(=O)=O)c2)ccn1` [Compound I-146, methyl [5-(1,1-dioxidoisothiazolidin-2-yl)-6-methyl-3,4′-bipyridin-2′-yl]carbamate] reads 10 to 50 nM; that for `COC(=O)Nc1cc(-c2cnc(N)c(S(=O)(=O)N3CCCC3)c2)ccn1` [Compound I-36, methyl [6-amino-5-(pyrrolidin-1-ylsulfonyl)-3,4′-bipyridin-2′-yl]carbamate], under 10 nM.
